The target in one assay is T1, human HDAC1 (Homo sapiens, UniProt Q13547).
T1 construct: purchased ENZO Life Sciences AG (Lausen, CH)
As to the kind of experiment: In vitro HDAC1 inhibition assay, fluorogenic p53 peptide Ac-RHKK(Acetyl)-AMC. The class given is biochemical. The conditions noted are these: 10 nM HDAC1, 20 µM substrate, 90 min, 37 °C. Summed up: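 Enzymes (10 nM HDAC1, 3 nM HDAC2 or HDAC3) were preincubated with inhibitor for ≥5 min in HEPES buffer pH 7.4 at 37 °C. Reactions ran with 20 µM substrate for 90 min (HDAC1) or 30 min (HDAC2/3), then were developed with trypsin/SAHA for 1 h. IC50 was fitted from fluorescence normalised to uninhibited and no-enzyme controls.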

A further assay deals with T2, HDAC6 (Homo sapiens, UniProt Q9UBN7).
T2 construct: made in house
T2 sequence (Q9UBN7 1-1215): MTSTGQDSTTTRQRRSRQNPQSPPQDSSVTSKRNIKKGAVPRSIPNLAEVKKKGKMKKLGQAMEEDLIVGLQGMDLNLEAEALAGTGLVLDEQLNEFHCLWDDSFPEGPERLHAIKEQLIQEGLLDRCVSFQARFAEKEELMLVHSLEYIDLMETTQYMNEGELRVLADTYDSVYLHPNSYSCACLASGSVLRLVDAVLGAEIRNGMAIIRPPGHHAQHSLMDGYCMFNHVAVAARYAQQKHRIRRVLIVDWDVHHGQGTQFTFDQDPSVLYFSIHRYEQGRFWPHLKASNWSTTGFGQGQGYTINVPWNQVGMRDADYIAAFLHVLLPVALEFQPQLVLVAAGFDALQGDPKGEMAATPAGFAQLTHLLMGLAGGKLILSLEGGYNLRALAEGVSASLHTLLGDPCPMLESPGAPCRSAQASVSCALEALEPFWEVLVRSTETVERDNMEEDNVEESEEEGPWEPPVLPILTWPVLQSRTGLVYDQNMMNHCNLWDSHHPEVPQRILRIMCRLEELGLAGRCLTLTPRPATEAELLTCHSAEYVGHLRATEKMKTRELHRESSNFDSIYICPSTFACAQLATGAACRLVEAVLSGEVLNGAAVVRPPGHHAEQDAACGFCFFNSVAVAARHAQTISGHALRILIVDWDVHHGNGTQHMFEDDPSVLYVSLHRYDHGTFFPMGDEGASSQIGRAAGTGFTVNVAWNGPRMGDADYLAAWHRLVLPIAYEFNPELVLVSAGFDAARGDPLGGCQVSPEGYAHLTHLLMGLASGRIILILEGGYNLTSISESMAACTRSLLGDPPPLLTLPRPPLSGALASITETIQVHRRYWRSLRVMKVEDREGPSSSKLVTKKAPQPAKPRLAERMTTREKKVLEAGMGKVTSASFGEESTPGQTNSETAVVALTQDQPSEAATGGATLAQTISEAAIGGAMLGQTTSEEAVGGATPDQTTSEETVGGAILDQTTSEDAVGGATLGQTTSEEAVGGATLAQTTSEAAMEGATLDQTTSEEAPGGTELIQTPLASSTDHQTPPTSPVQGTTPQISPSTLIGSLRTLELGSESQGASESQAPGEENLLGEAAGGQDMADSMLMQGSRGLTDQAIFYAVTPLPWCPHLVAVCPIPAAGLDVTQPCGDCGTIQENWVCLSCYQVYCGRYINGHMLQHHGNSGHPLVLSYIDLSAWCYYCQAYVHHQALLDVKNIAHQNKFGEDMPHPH
In words: HDAC6 inhibition (HDAC subtype panel). It is filed as biochemical.

For a further assay, the target named is T3, human HDAC11 (Homo sapiens, UniProt Q96DB2).
T3 construct: made in house
T3 sequence (Q96DB2 1-347): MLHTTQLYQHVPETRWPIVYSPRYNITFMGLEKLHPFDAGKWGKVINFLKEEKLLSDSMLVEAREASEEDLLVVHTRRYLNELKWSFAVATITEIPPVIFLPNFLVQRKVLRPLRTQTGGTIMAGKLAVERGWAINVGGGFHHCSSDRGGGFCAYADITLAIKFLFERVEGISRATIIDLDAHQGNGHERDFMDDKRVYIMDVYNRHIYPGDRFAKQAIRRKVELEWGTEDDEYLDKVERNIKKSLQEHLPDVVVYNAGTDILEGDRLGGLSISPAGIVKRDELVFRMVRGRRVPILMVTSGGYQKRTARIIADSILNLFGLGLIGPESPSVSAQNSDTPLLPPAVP
In words: HDAC11 inhibition assay. It is filed as biochemical. On the procedure:
(§1) Recombinant human HDAC1, HDAC2, and HDAC3/NCOR1 were purchased from ENZO Life Sciences AG (Lausen, CH). Recombinant human HDAC 4, HDAC5, HDAC7, HDAC9 and HDAC11 were produced by Barinka lab in Prague, as described before. Recombinant human HDAC8 was produced by Romier et al. (IGBMC, Univ. Strasbourg), as described in [55].
(§2) The determination of dose response curves for HDAC4, 5, 7 and 9 was performed as previously described with compound 4 as substrate (Abz-SRGGK(thio-TFA)FFRR-NH2). The substrate concentration was 50 µM and the enzyme concentration was 10 nM for HDAC4 and HDAC5, 5 nM for HDAC7 and 20 nM for HDAC9. HDAC11 inhibition assay was performed as described before. The fluorescence intensity was recorded with an Envision 2104 Multilabel Plate Reader (PerkinElmer, Waltham, MA) with an excitation wavelength of 330 ± 75 nm and an emission wavelength of 430 ± 8 nm.

In another assay the test system is MV4-11 cells. In words: Apoptosis in MV4-11 cells, annexin-V-FITC/PI flow cytometry. It is filed as cell-based, human. The conditions noted are these: for induction of early and late apoptosis: 0.5 µM, 48 h; for IC50: Homo sapiens. The method, then: We measured the induction of early (increased exposure of phosphatidylserine on the cell surface and therefore positive staining for annexin-V-FITC) and late apoptosis (positivity for annexin-V and accumulation of propidium iodide, PI) by flow cytometry.
All leukemic cells were kept in RPMI-1640 medium supplemented with 10% FBS and 1%penicillin/streptomycin (Sigma-Aldrich, Taufkirchen, Germany) under standard culture conditions at 37 °C and a 5% CO2 humidified atmosphere. Cells were authenticated as mentioned by us.

For the next assay, the target named is T4, human HDAC4 (Homo sapiens, UniProt P56524).
T4 construct: made in house
In words: HDAC4 dose response, substrate Abz-SRGGK(thio-TFA)FFRR-NH2. The class given is biochemical. On the procedure:
as §1, §2

Consider 2 compounds from paper PMC8745332, “Synthesis, Molecular Docking and Biological Characterization of Pyrazine Linked 2-Aminobenzamides as New Class I Selective Histone Deacetylase (HDAC) Inhibitors with Anti-Leukemic Activity” (International Journal of Molecular Sciences, 2021).

Read-outs that look alike come from different tables or passages of the source.

T1 sequence (Q13547 whole entry): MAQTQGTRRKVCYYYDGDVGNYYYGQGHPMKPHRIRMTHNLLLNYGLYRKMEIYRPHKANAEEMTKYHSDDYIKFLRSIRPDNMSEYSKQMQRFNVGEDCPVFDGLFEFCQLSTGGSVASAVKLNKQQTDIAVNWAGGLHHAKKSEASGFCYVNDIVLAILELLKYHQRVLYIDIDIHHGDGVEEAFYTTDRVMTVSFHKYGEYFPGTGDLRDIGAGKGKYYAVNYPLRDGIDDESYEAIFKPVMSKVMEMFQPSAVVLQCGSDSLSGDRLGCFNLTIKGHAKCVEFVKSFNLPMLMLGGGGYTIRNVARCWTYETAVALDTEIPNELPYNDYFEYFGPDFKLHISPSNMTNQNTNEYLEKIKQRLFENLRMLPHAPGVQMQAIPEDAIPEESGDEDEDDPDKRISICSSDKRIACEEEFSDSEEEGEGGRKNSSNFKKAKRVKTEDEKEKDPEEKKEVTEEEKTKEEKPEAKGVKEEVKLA
T4 sequence (P56524 whole entry): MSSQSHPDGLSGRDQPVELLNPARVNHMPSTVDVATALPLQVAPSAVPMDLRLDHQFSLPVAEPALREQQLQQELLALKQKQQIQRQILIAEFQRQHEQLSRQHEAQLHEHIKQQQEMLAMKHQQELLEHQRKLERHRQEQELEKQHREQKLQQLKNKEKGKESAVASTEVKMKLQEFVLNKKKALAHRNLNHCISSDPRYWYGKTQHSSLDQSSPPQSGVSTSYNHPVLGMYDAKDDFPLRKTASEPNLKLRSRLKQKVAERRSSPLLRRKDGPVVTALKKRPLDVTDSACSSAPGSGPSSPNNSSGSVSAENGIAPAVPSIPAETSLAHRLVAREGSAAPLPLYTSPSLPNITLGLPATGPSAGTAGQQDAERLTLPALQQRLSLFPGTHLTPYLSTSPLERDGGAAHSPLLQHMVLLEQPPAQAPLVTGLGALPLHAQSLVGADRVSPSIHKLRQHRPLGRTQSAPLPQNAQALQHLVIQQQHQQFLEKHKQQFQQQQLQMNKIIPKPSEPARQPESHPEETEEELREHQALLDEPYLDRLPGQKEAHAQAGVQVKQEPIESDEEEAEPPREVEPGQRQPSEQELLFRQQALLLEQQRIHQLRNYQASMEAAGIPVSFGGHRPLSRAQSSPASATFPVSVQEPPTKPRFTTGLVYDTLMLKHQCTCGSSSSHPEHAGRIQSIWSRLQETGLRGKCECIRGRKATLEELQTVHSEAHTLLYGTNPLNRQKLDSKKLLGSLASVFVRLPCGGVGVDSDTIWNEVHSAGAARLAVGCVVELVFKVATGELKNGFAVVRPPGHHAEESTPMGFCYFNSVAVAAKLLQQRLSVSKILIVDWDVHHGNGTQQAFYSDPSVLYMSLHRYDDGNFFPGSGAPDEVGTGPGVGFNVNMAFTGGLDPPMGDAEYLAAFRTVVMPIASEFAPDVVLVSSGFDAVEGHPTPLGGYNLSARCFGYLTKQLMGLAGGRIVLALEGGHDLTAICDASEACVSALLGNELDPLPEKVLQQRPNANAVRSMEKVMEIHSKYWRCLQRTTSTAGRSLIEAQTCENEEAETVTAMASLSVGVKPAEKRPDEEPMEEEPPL

Regarding `Cn1cc(CCN2CCN(c3cnc(C(=O)Nc4cc(-c5cccs5)ccc4N)cn3)CC2)c2ccccc21` [21a, N-(2-Amino-5-(thiophen-2-yl)phenyl)-5-(4-(2-(1-methyl-1H-indol-3-yl)ethyl)piperazin-1-yl)pyrazine-2-carboxamide], the IC50 against human HDAC1 is 0.26 ± 0.01 µM; against HDAC6 it was more than 20 µM; against human HDAC11 it was 7.5 ± 1 µM; against human HDAC4, more than 20 µM. The “induction of early and late apoptosis” value in the assay on MV4-11 cells (MV4-11 cells) is “slightly increased the number of MV4-11 cells in late apoptosis”.

Take `Nc1ccccc1NC(=O)c1cnc(N2CCN(Cc3c[nH]c4ccccc34)CC2)cn1` [19f, 5-(4-((1H-indol-3-yl)methyl)piperazin-1-yl)-N-(2-aminophenyl)pyrazine-2-carboxamide]: the IC50 is 0.13 ± 0.01 µM at human HDAC1; more than 20 µM on HDAC6; more than 20 µM on human HDAC11; 194 nM with MV4-11 cells (MV4-11, 48 h, read-out: IC50 (apoptosis, annexin-V/PI)); 255 nM with MV4-11 cells (MV4-11 cells, 24 h, annexin-V/PI, read-out: IC50 for apoptosis induction); approximately 300 nM in the assay with MV4-11 cells (MV4-11 cells, after 48 h, read-out: IC50 values for growth inhibition). At human HDAC4, this compound came in with an IC50 of more than 20 µM. In the assay on MV4-11 cells (MV4-11 cells), the “induction of early and late apoptosis” value is “early and late apoptosis in nearly the whole MV4-11 cell population”. Moreover, the “fold more effective than MS-275 (apoptosis induction)” value with MV4-11 cells (MV4-11 cells, versus MS-275) is on record as “at least 4 fold”.
